From PMC9108603, “Microbial Metabolite Inspired β‐Peptide Polymers Displaying Potent and Selective Antifungal Activity” (Advanced Science, 2022)
Values after ≈ are worked out from the molar mass of the structure shown. Like-named read-outs stand apart in the source and are kept apart here.

Key:
C. albicans = test: MFC assay, plating after the MIC test; assay type: cell-based; details: Candida albicans; note: kills > 99.9%
Experimental: (§1) In vitro antifungal assays. The MIC assays for C. albicans (K1, SC5314, Gu5, ATCC90028, R01, R02, R03 and R04 strains) and C. neoformans (H99, MYA737 and JEC21 strains) were conducted according to a previously described protocol. The cultured fungal cells were collected at 2.5 × 10^3 CFU/mL in RPMI 1640 medium to give the working suspension. Two- […]
(§2) Then 50 µL of the cell suspension was added to each well. Wells containing cells in RPMI without any polymer or antifungal drug were used as drug-free controls, and wells containing RPMI medium only were used as cell-free controls. The plate was gently stirred for 10 seconds and then incubated at 30 °C. After C. albicans and C. neoformans cells were incubated for 24 h and 48 h, respectively, fungal cell growth was checked visually. The MIC values were identified as the lowest concentration […]
(§3) The MFC assay for Candida and Cryptococcus was conducted after the MIC test.
(§4) An aliquot of 3 µL premixed suspension from each well was plated on the yeast extract-peptone-dextrose (YPD) agar. The plates were incubated at 30 °C for 24 h and 48 h, respectively, for C. albicans cells and C. neoformans cells. Then the plate was inspected visually for colony formation. […]

C. neoformans = test: MFC assay, plating after the MIC test; assay type: cell-based; details: Cryptococcus neoformans, 48 h; note: kills > 99.9%
Experimental: as §1, §2, §3, §4

C. albicans K1 strain = test: Kill kinetics assay; assay type: cell-based, Candida albicans; details: 2 × MFC, C. albicans K1, RPMI 1640, 30 °C, CFU on YPD agar, duplicates
Experimental: Kill kinetics assay. A culture of C. albicans K1 strain was collected at 2.5 × 10^3 CFU/mL or 6.0 × 10^6 CFU/mL in RPMI 1640 medium to give the working suspension. […]
solution was added to 0.5 mL of the above fungal suspension in each well of a 24-well plate to achieve 2 × MFC of polymer concentration. The fungal suspensions were incubated at 30 °C. At desired time points, each suspension was homogeneously mixed and 30 µL of each

B. subtilis BR151 = test: Antibacterial MIC test; assay type: cell-based; details: 1.0 × 10^5 CFU/mL in MH medium
Description: (§5) aforementioned antifungal assay. Gram-positive bacteria ( S. aureus ATCC 6538, S.

E. coli ATCC 25922 = test: Antibacterial MIC test; assay type: cell-based; details: 1.0 × 10^5 CFU/mL in MH medium
Description: as §5

S. aureus ATCC 6538 = test: Antibacterial MIC test; assay type: cell-based; details: 1.0 × 10^5 CFU/mL in MH medium
Description: as §5

[1] = system: S. epidermidis ATCC 49134; test: Antibacterial MIC test; assay type: cell-based; details: 1.0 × 10^5 CFU/mL in MH medium
Description: as §5

A. Baumannii ATCC 747 = test: Antibacterial MIC test; assay type: cell-based; details: 1.0 × 10^5 CFU/mL in MH medium
Description: as §5

[2] = system: K. pneumoniae ATCC 700603; test: Antibacterial MIC test; assay type: cell-based; details: 1.0 × 10^5 CFU/mL in MH medium
Description: as §5

[3] = system: mature C. albicans biofilms; test: Eradication of mature biofilm (MTT); assay type: cell-based, Candida albicans; details: 48 h biofilm, then 48 h treatment at 37 °C
C. albicans (K1 strain) = test: Mitochondrial membrane potential (JC-1); assay type: cell-based, Candida albicans; details: 50 μg/mL PDAP20, 2 h, 3.0 × 10^6 CFU/mL; green = early stage of apoptosis
Experimental: NAC concentration without affecting the normal cell growth. Wells containing cells in RPMI and 40 mM H 2O2 was used as positive controls. Cell suspension of C. albicans (K1 strain) at 6.0 × 10^6 CFU/mL was treated with 20 μM 2,7-dichlorodi-hydrofluorescein diacetate (DCFHDA) for 20 min. Then 50 µL of the cell suspension was added to each well, except the blank control (RMPI containing DCFHDA without cells). The fluorescence intensity of the induced ROS production was measured every 30 min using a plate reader at λ ex = 485 nm and λem = 530 nm. The confocal observation of ROS production was conducted after C. albicans (K1 strain) suspension at 3.0 × 10^6 CFU/mL was incubated with 50 μg/mL CPM-PDAP 20 for 2 h. […]
Detection of mitochondrial membrane potential. Changes in mitochondrial membrane potential in C. albicans after incubation with PDAP 20 were analyzed using JC-1 as previously described. Mitochondrial membrane potential was detected with the fluorescent dye JC-1, which exists as aggregates (red) in normal cells with polarized mitochondria, whereas exists as monomers (green) in apoptotic cells with depolarized mitochondria. […]
DNA fragmentation assay. Apoptosis induced DNA fragments in C. albicans cells were analyzed using the TdT-mediated dUTP Nick-End Labeling (TUNEL) method. […]

[4] = system: Gram‐positive and Gram‐negative bacteria; test: Antibacterial MIC test, summary over six bacteria; assay type: cell-based; details: S. aureus, S. epidermidis, B. subtilis, E. coli, A. baumannii, K. pneumoniae
Description: as §5

C[C@@H]1[C@H](O)[C@@H](C)/C=C/C=C/C=C/C=C/C=C/C=C/C=C/[C@H](O[C@@H]2O[C@H](C)[C@@H](O)[C@H](N)[C@@H]2O)C[C@@H]2O[C@](O)(C[C@@H](O)C[C@@H](O)[C@H](O)CC[C@@H](O)C[C@@H](O)CC(=O)O[C@H]1C)C[C@H](O)[C@H]2C(=O)O [AmpB, amphotericin B]
MFC (C. albicans; 24 h, read-out: MFC C. albicans R01): 1.6 µg/mL (≈ 1.73 µM) | MFC (C. albicans; 24 h, read-out: MFC C. albicans R03): 1.6 µg/mL (≈ 1.73 µM) | MFC (C. albicans; ATCC90028, 24 h, read-out: MFC C. albicans ATCC90028): 1.6 µg/mL (≈ 1.73 µM) | MFC (C. albicans; SC5314, 24 h, read-out: MFC C. albicans SC5314): 1.6 µg/mL (≈ 1.73 µM) | MFC (C. neoformans; read-out: MFC C. neoformans JEC21): 1.6 µg/mL (≈ 1.73 µM) | MFC (C. neoformans; read-out: MFC C. neoformans MYA737): 1.6 µg/mL (≈ 1.73 µM)

poly(DL‐diaminopropionic acid) [PDAP20]
Time to completely kill the fungi (time‐kill kinetics) (C. albicans K1 strain): several hours | MIC B. subtilis (B. subtilis BR151): 50 µg/mL | MIC E. coli (E. coli ATCC 25922): 200 µg/mL | MIC S. aureus (S. aureus ATCC 6538): > 200 µg/mL | MIC S. epidermidis [1]: 200 µg/mL | MIC A. baumannii (A. Baumannii ATCC 747): > 200 µg/mL | MIC K. pneumoniae [2]: > 200 µg/mL | Concentration that eradicates mature biofilms (SMIC80) [3]: 50 µg/mL | Mitochondrial membrane potential, JC‐1 stain (C. albicans (K1 strain)): cytosol green fluorescence | MIC against the six bacteria (summary) [4]: greater than 50 µg mL^−1
